{"source": "patent US10058587B2", "about": "“Peptide composition for cancer treatment by inhibiting TRPV6 calcium channel activity” (priority 2008, dated 2018)", "key": {"[1]": {"test": "Tissue distribution of Cy5.5-labeled peptides by optical imaging", "assay_type": "in vivo, CD1 mice", "details": "four hours after i.v. injection of 100 ug", "excerpt": "SorC13 and SorC27 were labeled with the near-infrared probe, Cy5.5. SorC13 was labeled at lysine-1 and lysine-8 with the infrared fluorescent probe cy5.5 through reaction with Cy5.5 NHS ester-activated process. SorC27 was labeled at the single cysteine thiol with Cy5.5 maleamide-activated reaction. The labeled peptides were purified with a combination of size exclusion chromatography and HPLC. The label, Cy5.5, fluoresces in the infra-red region after excitation with a scanning laser. The low energy laser is able to penetrate the animal to about 1 cm and, thus, by scanning prone and supine positions, the presence of the tagged peptides can be quantified in three dimensions.\nCy5.5-labeled peptides were intravenously injected into CD1 mice (4 for each compound) at 100 ug per animal in 100 uL, and animals were imaged live using an optical imaging system, Optix eXplorer (GE Healthcare Systems) at different time points (30 min, 90 min, 4 h). […] The bio-distribution of the labeled peptides in different organs and tissues were visualized and relatively quantified by optical imaging analysis. This protocol allows for visualization of the location of the labeled peptides and how the location changes over time. […] Nodes that accumulated the labeled peptides are indicated by line 1 (superfacial cervical nodes), line 4 (axillary nodes), line 5 (brachial nodes), line 8 (mesenteric nodes) and line 9 (inguinal nodes). FIGS. 8, 9 and 10 show the amounts of labeled peptides in various organs ex vivo."}, "[2]": {"system": "T47D breast cancer xenografts", "test": "T-47D breast cancer xenograft, SorC13 with Paclitaxel (Example 27)", "assay_type": "in vivo, NOD/SCID mice", "details": "for % ΔT/ΔC (tumor volume normalized to control) / Mean tumour volume: alone or with SorC13; for Mean tumour volume: after 12-day rest post-treatment; for Mean tumor volume: day 12 of treatment, alone or with SorC13 300 mg/kg", "experimental": "Tumor volumes (V) were calculated by caliper measurement using standard measurements of the width (W), length (L) and thickness (T) of tumors. Animals were randomized into treatment groups so that the median tumor volumes of each group were similar at the start of dosing. Percentage ΔT/ΔC values, as a measure of efficacy, were determined where ΔC refers to change in volume of control or untreated tumor, and ΔT refers to change in volume of treated tumor.\nAnimals were intraperitoneally (i.p.) injected with the vehicular control, or the low, medium or high doses of CAT or CAT and SorC13. Mice received low medium or high doses of CAT or CAT and SorC13 by i.p. injection every day for 12 days or CAT injections as set out in Table 10. Paclitaxel was injected first, followed by carboplatin 30 minutes later and then SorC13. The tumor volume and body weights were measured every day. As well, general health of the animals was monitored every day.\nThe human […] breast cancer cell line T-47D (ATCC #HTB-133), was cultured in growth media prepared with ATCC complete growth medium. The base medium for the T-47D cell line is ATCC-formulated RPMI-1640 Medium. The complete growth medium is supplemented with 0.2 Units/ml bovine insulin and fetal bovine serum to a final concentration of 10% (v/v). Cells were cultured at 37° C. in an atmosphere of 95% air and 5% carbon dioxide with sub-culturing done according to ATCC guidelines.\nThe cell preparation, formulation, implantation, measurement and treatment procedures were otherwise as described in Example 26 and Table 10 but with Paclitaxel at low (6 mg/kg), medium (10 mg/kg) and high (16 mg/kg) doses."}, "human TRPV6b": {"target": "T1, human TRPV6b (Homo sapiens, UniProt Q9H1D0)", "T1 construct": "expressed in transfected cells; host or cells: LnCaP (ATCC CRL-1740), human lymph node prostate cancer cells", "T1 sequence (Q9H1D0 41-765 limits assumed)": "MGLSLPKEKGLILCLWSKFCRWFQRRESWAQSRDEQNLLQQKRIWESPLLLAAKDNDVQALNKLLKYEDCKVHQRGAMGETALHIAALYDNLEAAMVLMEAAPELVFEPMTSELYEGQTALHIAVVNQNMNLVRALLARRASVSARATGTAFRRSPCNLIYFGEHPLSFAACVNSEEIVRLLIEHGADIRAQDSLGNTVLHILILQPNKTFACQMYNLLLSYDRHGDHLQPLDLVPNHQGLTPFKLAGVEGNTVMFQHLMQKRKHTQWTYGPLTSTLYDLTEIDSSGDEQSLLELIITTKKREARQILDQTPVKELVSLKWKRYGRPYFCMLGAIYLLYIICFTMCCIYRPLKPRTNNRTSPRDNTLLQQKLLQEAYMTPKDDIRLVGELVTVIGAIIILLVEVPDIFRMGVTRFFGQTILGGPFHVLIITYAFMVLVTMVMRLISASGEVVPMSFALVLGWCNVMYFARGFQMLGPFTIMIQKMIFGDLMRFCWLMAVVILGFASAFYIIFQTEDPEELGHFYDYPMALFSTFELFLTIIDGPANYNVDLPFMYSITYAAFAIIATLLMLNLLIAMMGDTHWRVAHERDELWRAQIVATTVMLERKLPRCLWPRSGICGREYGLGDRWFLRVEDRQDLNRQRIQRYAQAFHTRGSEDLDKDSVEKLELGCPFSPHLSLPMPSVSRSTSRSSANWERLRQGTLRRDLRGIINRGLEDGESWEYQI", "test": "Whole-cell patch clamp of calcium store operated current (ISOC) through TRPV6 in transfected LnCaP cells", "assay_type": "cell-based", "experimental": "An expression vector (pCAGS-IRES-hTRPV6b) (Bodding et al. 2003) containing the nucleotide code for human TRPV6b was transfected into and expressed by human lymph node prostate cancer (LnCaP, ATCC CRL-1740). Patch clamping with whole-cell current acquisition was used to measure the calcium current through this channel. Cells were treated and calcium store operated current (ISOC) was measured with either SorC13 (n=90) or SorC27 (n=30) in a closed-circuit perfusion for 3 min at each of cumulative concentrations of 0 (baseline), 100 nM, 500 nM 1 uM, 30 uM and 100 uM. Washout perfusion was done at 2 mL/min for 3 min. […] Further, both C-peptides are very strong inhibitors of calcium current through the TRPV6 channel with inhibition constants in the 100 nM range."}}, "note": "Where no end group is shown, it is not given here."}
{"compound": "SorC27-Cy5.5: SorC27 labeled at the single cysteine thiol with Cy5.5 (EGKLSSNDTEGGLC(Cy5.5)KEFLHPSKVDLPR)", "values": [{"measurement": "accumulation at lymph nodes (superfacial cervical, axillary, branchial, mesenteric, inguinal)", "setting": "[1]", "value": "Significant accumulation"}]}
{"compound": "CC(=O)O[C@H]1C(=O)[C@@]2(C)[C@H]([C@H](OC(=O)c3ccccc3)[C@]3(O)C[C@H](OC(=O)[C@H](O)[C@@H](NC(=O)c4ccccc4)c4ccccc4)C(C)=C1C3(C)C)[C@]1(OC(C)=O)CO[C@@H]1C[C@@H]2O", "note": "[Paclitaxel]", "values": [{"measurement": "% ΔT/ΔC (tumor volume normalized to control)", "setting": "[2]; Day 6, high Paclitaxel (16 mg/kg)", "value": 17.8, "unit": "%"}, {"measurement": "% ΔT/ΔC (tumor volume normalized to control)", "setting": "[2]; Day 6, low Paclitaxel (6 mg/kg)", "value": 26.0, "unit": "%"}, {"measurement": "% ΔT/ΔC (tumor volume normalized to control)", "setting": "[2]; Day 6, medium Paclitaxel (10 mg/kg)", "value": "−4.0", "unit": "%"}, {"measurement": "% ΔT/ΔC (tumor volume normalized to control)", "setting": "[2]; Day 12, high Paclitaxel (16 mg/kg)", "value": "−96.4", "unit": "%"}, {"measurement": "% ΔT/ΔC (tumor volume normalized to control)", "setting": "[2]; Day 12, low Paclitaxel (6 mg/kg)", "value": 16.3, "unit": "%"}, {"measurement": "% ΔT/ΔC (tumor volume normalized to control)", "setting": "[2]; Day 12, medium Paclitaxel (10 mg/kg)", "value": "−45.9", "unit": "%"}, {"measurement": "% ΔT/ΔC (tumor volume normalized to control)", "setting": "[2]; Day 18 (rest period), high Paclitaxel", "value": "−112.4", "unit": "%"}, {"measurement": "% ΔT/ΔC (tumor volume normalized to control)", "setting": "[2]; Day 18 (rest period), low Paclitaxel", "value": 46.0, "unit": "%"}, {"measurement": "% ΔT/ΔC (tumor volume normalized to control)", "setting": "[2]; Day 18 (rest period), medium Paclitaxel", "value": "−56.9", "unit": "%"}, {"measurement": "% ΔT/ΔC (tumor volume normalized to control)", "setting": "[2]; Day 24 (rest period), high Paclitaxel", "value": "−88.4", "unit": "%"}, {"measurement": "% ΔT/ΔC (tumor volume normalized to control)", "setting": "[2]; Day 24 (rest period), low Paclitaxel", "value": 33.3, "unit": "%"}, {"measurement": "% ΔT/ΔC (tumor volume normalized to control)", "setting": "[2]; Day 24 (rest period), medium Paclitaxel", "value": "−33.2", "unit": "%"}, {"measurement": "Mean tumour volume", "setting": "[2]; high Paclitaxel (16 mg/kg)", "value": 20.24, "unit": "mm^3"}, {"measurement": "Mean tumour volume", "setting": "[2]; low Paclitaxel (6 mg/kg)", "value": 52.08, "unit": "mm^3"}, {"measurement": "Mean tumour volume", "setting": "[2]; medium Paclitaxel (10 mg/kg)", "value": 35.52, "unit": "mm^3"}, {"measurement": "Mean tumor volume", "setting": "[2]; high Paclitaxel (16 mg/kg)", "value": 26.47, "unit": "mm^3"}, {"measurement": "Mean tumor volume", "setting": "[2]; low Paclitaxel (6 mg/kg)", "value": 46.37, "unit": "mm^3"}, {"measurement": "Mean tumor volume", "setting": "[2]; medium Paclitaxel (10 mg/kg)", "value": 36.23, "unit": "mm^3"}]}
{"compound": "C#CCN1C(C)=C(C(=O)OC)C(c2cccc([N+](=O)[O-])c2)C(C(=O)OCC)=C1C", "note": "(stereo not drawn) [MRS-1845, N-propargylnitrendipene, reference compound]", "values": [{"measurement": "inhibition of the calcium current", "setting": "human TRPV6b; positive control at 5 uM", "value": "demonstrated inhibition of the calcium current"}]}
{"compound": "HPSKVDLPR [SorC9, HPSKVDLPR]", "values": [{"measurement": "Kd", "setting": "human TRPV6b", "value": "~0.09", "unit": "µM"}]}
